The source of these data is patent publication EP4371976B1, “IONIZABLE LIPIDS AND LIPID NANOPARTICLES CONTAINING THEREOF” (Certest Biotec, S.L., priority 2022, dated 2024).

A short description of series [1]: Size distribution, polydispersity and Z-potential of LNPs by dynamic light scattering (Malvern Zetasizer). Format: physicochemical. As to conditions: LNPs, standard formulation 50:10:38.5:1.5; DLS. Here is the method: The LNP solution was then adjusted to a final concentration of mRNA of 100 µg/ml. Size distribution, polydispersity and Z-potential were measured by dynamic light scattering (DLS) using Malvern Zetasizer Advance Lab Blue Label. RNA encapsulation was assessed by Quant-IT® Ribogreen following the manufacturer's instructions.

Series [2] can be described thus: RNA encapsulation efficiency of LNPs by Quant-IT Ribogreen. Format: physicochemical. The conditions noted are these: for Encaps. efficiency (%): LNPs with luciferase mRNA, ionizable lipid:non-cationic lipid:sterol:PEG-modified lipid 50:10:38.5:1.5, percentage of RNA entrapped in the LNP; for Encaps. efficiency: Table 8, LNP 50:10:38.5:1.5, luciferase mRNA. Summed up: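 Ribogreen dye assay per manufacturer quantified encapsulated mRNA. Particles were made by adding mRNA in water to the ethanol phase, then 1:1 Tris dilution and overnight dialysis into Tris/15% sucrose; final mRNA set to 100 µg/ml.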

The test system of the next series is Female BALB/c mice. In words: Firefly luciferase expression (total flux, IVIS imaging) in mice after injection of mRNA-loaded LNPs. Format: in vivo. On the procedure: For in vivo administration, mRNA comprising in the 5' to 3' direction a sequence encoding for luciferase of SEQ ID NO:1, was encapsulated into LNPs following the procedure described in Hassett, K. J. et al., "Optimization of Lipid Nanoparticles for Intramuscular Administration of mRNA Vaccines", 2019, Mol. Ther. Nucleic Acid, vol. 15, pp. 1-11. Briefly, the purified mRNAs were first diluted in sodium citrate buffer at pH=4 at a final concentration of 266 µg/ml. Separately, a mixture of the ionizable lipid of the invention:DSPC (Merk 850365P):cholesterol (Sigma C3045):DMG-PEG2000 (Cayman 33945-1) were dissolved into ethanol at the respective molar percentages of 50:10:38.5:1.5, and with a lipid-nitrogen-to-phosphate ratio (N:P) ratio of 5,5:1.
The mRNA aqueous solution was then carefully added to the ethanol solution, and the resulted solution was homogenized by pipetting up and down for 4-5 times. The resulting LNPs were immediately diluted 1:1 with Tris buffer and dialyzed overnight against Tris buffer containing 15% sucrose. The resulting LNP solution was then collected, and the encapsulated mRNA was assessed by Quant-IT® Ribogreen (Invitrogen R11490) following the manufacturer's instructions.
Female BALB/c mice (Charles River Laboratories), 8-10-week-old, weighting 18-23 g, were acclimatized to new conditions upon arrival to experimental facilities for 3-7 days. Housing conditions were room temperature 20-24 °C, humidity 50-70 %, and light intensity 60 lux with a light-dark cycle of 12 hours.
For Firefly Luciferase activity measurement in mice, LNPs produced as indicated above (ionizable lipid:helper lipid: sterol:PEG-modified lipid → 50:10:38.5:1.5) and containing 5 µg of the indicated mRNA in 50 µl final volume, were injected intramuscularly.
From 4 to 72 hours after RNA-LPN inoculation mice were anaesthetized by inhalation with 4% of isoflurane using a vaporizer. The maintenance of the anaesthesia was performed at 1.5% of isoflurane. Then, D-luciferin (Quimigen, 12507) was injected intraperitoneally at 150 mg/kg, normally ~200 µL of the stock at 15 mg/mL in PBS for a 20 g mouse. Luciferase images were acquired 10 minutes after luciferin inoculation using the IVIS Lumina XRMS Imaging System following manufacturer's instructions.

Series [3] can be described thus: Apparent pKa of LNPs comprising the ionizable lipid (Table 6). The conditions noted are these: standard formulation 50:10:38.5:1.5.
Where [4] appears, read: Table 8, mice, intramuscular, 5 µg luciferase mRNA in 50 µl, LNP 50:10:38.5:1.5.
[5] abbreviates: Table 9, comparative disulfide compounds, tested in vivo.

In the case of `CCCCCCCCC(CCCCCC)C(=O)NC(CCSCCC(=O)OCCCCCCCC(C)C)C(=O)NCCCN(C)C` (centres unmarked) [VC-LC-0101], the “Z Potential (± D.E.) [mV]” value in series [1] is given as 0.00 mV. Further, in series [2], the “Encaps. efficiency (%)” value is on record as 96.01% and the Encaps. efficiency was 96.0%. The “Total Flux” value in the series with Female BALB/c mice (setting [4]) is recorded as 1.05E+07 p·s^-1.

As for `CCCCCCCCC(CCCCCC)C(=O)NC(CCSSCCC(NC(=O)C(CCCCCC)CCCCCCCC)C(=O)NCCN1CCN(C)CC1)C(=O)NCCN1CCN(C)CC1` (centres unmarked) [VC-LC-0236], the “transfection (luminescence) in vivo” value in the series with Female BALB/c mice (Figure 2, intramuscular injection, LNP 50:10:38.5:1.5 encapsulating luciferase mRNA) is listed as “no transfection”. Moreover, the “Total Flux” value in the series on Female BALB/c mice (setting [5]) is given as 5.20E+05 p·s^-1.

As for `CCCCCCCCCCCCCOC(=O)CCSCCC(C(=O)NC1CCN(C)CC1)C(=O)OC(CCCCCCCC)CCCCCCCC` (centres unmarked) [VC-LC-0441], in series [1], the P.D.I. is listed as 0.12, the “Particle size/ Ø (nm)” value is given as 186.5 nm and the “Z Potential (± D.E.) [mV]” value was -4.04 mV. In series [2], the “Encaps. efficiency (%)” value is recorded as 78.30% and the Encaps. efficiency was 78.3%. For the same molecule, the “Total Flux” value with Female BALB/c mice (setting [4]) amounted to 2.2E+07 p·s^-1.

In the case of `CCCCCCCCCCCCCCCCOC(=O)CCSCC(CC(=O)NCCCN1CCOCC1)C(=O)OC(CCCCCCCC)CCCCCCCC` (centres unmarked) [VC-LC-0547], in series [1], the P.D.I. stood at 0.18, the “Particle size/ Ø (nm)” value was 168 nm and the “Z Potential (± D.E.) [mV]” value was -13.52 mV. Moreover, in series [2], the “Encaps. efficiency (%)” value was 31.52% and the Encaps. efficiency was 31.52%. In the series with Female BALB/c mice (setting [4]), the “Total Flux” value turned out to be 1.1E+08 p·s^-1.

Consider `CCCCCCCCCCCCC(CCCCCCCCCC)COC(=O)CCSCCC(NC(=O)C(CCCCCC)CCCCCCCC)C(=O)NCCN(CC)CC` (centres unmarked) [VC-LC-0487], for which, in series [1], the P.D.I. was determined as 0.17, the “Particle size/ Ø (nm)” value is reported as 156.3 nm and the “Z Potential (± D.E.) [mV]” value was -9.59 mV. Moreover, in series [2], the “Encaps. efficiency (%)” value amounted to 62.43% and the Encaps. efficiency worked out at 62.43%. Also, the “Total Flux” value in the series with Female BALB/c mice (setting [4]) came out at 6.9E+07 p·s^-1.

Regarding `CCCCCCCCC(CCCCCC)C(=O)NC(CCSSCCC(NC(=O)C(CCCCCC)CCCCCCCC)C(=O)NCCCN(CCO)CCO)C(=O)NCCCN(CCO)CCO` (centres unmarked) [VC-LC-0237], the “Total Flux” value with Female BALB/c mice (setting [5]) amounted to 3.16E+05 p·s^-1.

On to `CCCCCCC#CCCOC(=O)CCSCC(CC(=O)NCCCN1CCOCC1)C(=O)OC(CCCCCCCC)CCCCCCCC` (centres unmarked), for which, in the series on Female BALB/c mice (Table 7A-C, mice, intramuscular, 5 µg luciferase mRNA in 50 µl, LNP ionizable lipid:helper lipid:sterol:PEG-modified lipid 50:10:38.5:1.5), the Total Flux entry is “Total flux: 1,4E+08 p·s^-1”.

`CCCCCCCCC(CCCCCC)C(=O)NC(CCSSCCC(NC(=O)C(CCCCCC)CCCCCCCC)C(=O)NCCCN(C)C)C(=O)NCCCN(C)C` (centres unmarked) [VC-LC-0230]: the “Total Flux” value with Female BALB/c mice (setting [5]) was found to be 4.47E+05 p·s^-1.

For the molecule `CCCCCCCCCCC(CCCCCCCC)C(=O)NC(CCSCCC(=O)OCC(CC)CCCC)C(=O)NC1CCN(C)CC1` (centres unmarked) [VC-LC-0559], in series [1], the P.D.I. was 0.14, the “Particle size/ Ø (nm)” value is 138.8 nm and the “Z Potential (± D.E.) [mV]” value is listed as -5.71 mV. Moreover, in series [2], the “Encaps. efficiency (%)” value is listed as 65.25%. For the same molecule, in series [3], the “Apparent pKa” value is reported as 6.40.

For `CCCCCCCC#CCOC(=O)CCSCCC(NC(=O)C(CCCCCC)CCCCCCCC)C(=O)NC1CCN(C)CC1` (centres unmarked) [VC-LC-0429], in series [1], the P.D.I. turned out to be 0.14, the “Particle size/ Ø (nm)” value was 155.6 nm and the “Z Potential (± D.E.) [mV]” value is -12.49 mV. Moreover, the “Encaps. efficiency (%)” value in series [2] amounted to 46.96%. In series [3], the “Apparent pKa” value amounted to 6.48.

For the molecule `CCCCCCCCCCC(CCCCCCCC)C(=O)NC(CCSCCC(=O)OCCCCCCCC)C(=O)NCC1CCN(C)CC1` (centres unmarked) [VC-LC-0519], in series [1], the P.D.I. amounted to 0.16, the “Particle size/ Ø (nm)” value worked out at 137.9 nm and the “Z Potential (± D.E.) [mV]” value is -1.93 mV. The “Encaps. efficiency (%)” value in series [2] is reported as 97.15%. Also, in series [3], the “Apparent pKa” value was 6.69.

Regarding `CCCCCCCCCCCCOC(=O)CCSCCC(NC(=O)C(CCCCCC)CCCCCCCC)C(=O)NCC1CCN(C)CC1` (centres unmarked) [VC-LC-0494], in series [1], the P.D.I. amounted to 0.22, the “Particle size/ Ø (nm)” value amounted to 169.8 nm and the “Z Potential (± D.E.) [mV]” value worked out at 5.52 mV. In series [2], the “Encaps. efficiency (%)” value turned out to be 98.99%. Moreover, in series [3], the “Apparent pKa” value is 6.86.
